Source: US20260200849A1, “CATIONIC LIPIDS AND PREPARATION METHOD THEREOF” (RiboX Therapeutics HK Limited, priority 2024, published 2026)
“And” between values parts separate entries of the source, which are not always exact repeats. Identical values can stand only once. Like-named read-outs stand apart in the source and are kept apart here.

Experiments:
Hep G2 cells [1] = assay: In vitro toxicity: Hep G2 cell viability by CellTiter-Glo; assay type: cell-based; conditions: Formulation No. 001, RNA No. 331, 1 μg/mL RNA-LNPs, 72 hours post transfection, cell only = 100%
Description: 2E5 Hep G2 cells were transfected with 1 μg/mL RNA-LNPs. At 72 hours post transfection, cell viability (2-well repeat) was determined with the CellTiter-Glo® reagent kit, according to the kit protocol, measured by a luminometer. Cell only as control (100%).
The cell viability was calculated according to the following formula: […]

[2] = LNP size and polydispersity index (PDI) by dynamic light scattering (Zetasizer); assay type: physicochemical; conditions: for Size (nm): Formulation No. 001 (Ionizable lipid:DSPC:cholesterol:DMG-PEG2000 = 50:10:38.5:1.5, N/P 6), RNA No. 331
Description: (§1) The LNP size and polydispersity index (PDI), determined by dynamic light scattering (DLS), and zeta potential were measured by a Zetasizer machine (Malvern). RNA concentration and encapsulation efficacy (EE %) were analyzed by the Quant-IT Ribogreen kit by calculating the percentage encapsulation at 100%—(RNA-LNPs/RNA-LNPs with Triton X-100).

[3] = In vivo lipid metabolism by IV: ionizable lipid concentration in plasma and liver by LC-MS/MS; parameters: species or system Sprague-Dawley (SD) rats; conditions: IV 0.15 mg/kg RNA-LNPs (hEPO), male SD rats, individual animals N=3; for concentration at 6 h: male, Sprague-Dawley, rat, iv, 0.15 mg/kg
Description: In Vivo Lipid Metabolism by IV 7-8 week old, male Sprague-Dawley (SD) rats (N=3) were injected with 0.15 mg*kg−1 of RNA-LNPs encoding for hEPO by intravenous injection. At 1-/6-/96-/168-hours post injection, about 100 μL blood will be harvested and immediately added to the EDTAK2 containing tube. Place on wet ice and then centrifuged at 3000 g×5 min to obtain plasma. 30 μL plasma will be aliquoted to the 1.5 mL tubes. At terminal 6-/168-hours post injection, the rats will be euthanized with CO2, hemorrhaged immediately with cardiac puncture, respectively. The livers were harvested, weighed and washed with saline, then put into 50 ml centrifuge tube placed in liquid nitrogen, then transferred into wet ice, and finally stored at −80° C. immediately. Both plasma and liver samples were used for ionizable lipid concentration quantification by LC-MS/MS. The lower limit of quantitation (LLOQ) is 1 ng/mL in plasma or 11 ng/g in liver. BQL—Below the lower limit of quantitation (LLOQ).

C57BL/6J mice = assay: In vivo expression by IV, 1.0 mg/kg luciferase RNA-LNPs, whole-body and organ IVIS luminescence; conditions: Formulation No. 001, RNA No. 331; male C57BL/6J mice, 1.0 mg*kg−1 intravenous, 24-hours post injection
In short: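 Male C57BL/6J mice, 6-8 weeks old (N=3), received 1.0 mg*kg−1 firefly-luciferase RNA-LNPs IV. At 24 h post-dose, luciferin (15 mg/ml) was given IP, and whole-body, liver, spleen, kidney, small and large intestine luminescence was imaged by IVIS.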

[4] = RNA encapsulation efficacy (EE %) by Quant-IT Ribogreen kit; assay type: physicochemical; conditions: LNP
Description: as §1

IL-6 = assay: In vivo tolerability by IV: serum IL-6 by Luminex; parameters: species or system C57BL/6J mice; conditions: Formulation No. 001, RNA No. 331, male C57BL/6J mice, 1.0 mg*kg/1 intravenous; for IL-6 at 2 h: 2 hours post injection; for IL-6 at 24 h: 24 hours post injection
In short: (§2)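 Male C57BL/6J mice aged 6-8 weeks (N=3) received 1.0 mg*kg−1 firefly-luciferase RNA-LNPs intravenously, with PBS as negative control. Serum taken at 2 and 24 h post-injection was assayed for MCP-1 and IL-6 by Luminex.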

Balb/c mice = assay: In vivo expression by IV, 0.05 mg/kg luciferase RNA-LNPs, IVIS luminescence; conditions: Formulation No. 001, RNA No. 331; female Balb/c mice, 0.05 mg*kg−1 intravenous, 24-hours post injection
In short: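 IVIS bioluminescence was read after IP luciferin (15 mg/ml): whole-body at 24 and 72 h, or whole-body/liver/spleen at 24 h. Dosing was a single IV injection of 0.05 mg*kg−1 RNA-LNPs encoding firefly luciferase into 7-8 week old female Balb/c mice, N=3.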

Hep G2 cells [5] = assay: In vitro expression: luciferase activity in Hep G2 cells transfected with RNA-LNPs; assay type: cell-based; conditions: Formulation No. 001, RNA No. 331 (firefly-luciferase), 100 ng/mL RNA-LNPs, 72 hours post transfection
Description: 2E5 Hep G2 cells were transfected with 100 ng/mL of RNA-LNPs encoding for firefly-luciferase. At 72 hours post transfection, the cells were washed and lysed. The luciferase expression (2-well repeat) was determined in the cell lysates with the luciferase assay reagent kit (Promega), according to the kit protocol, luciferase activity was measured by a luminometer.

MCP-1 = assay: In vivo tolerability by IV: serum MCP-1 by Luminex; parameters: species or system C57BL/6J mice; conditions: Formulation No. 001, RNA No. 331, male C57BL/6J mice, 1.0 mg*kg/1 intravenous; for MCP-1 at 2 h: 2 hours post injection; for MCP-1 at 24 h: 24 hours post injection
In short: as §2

[6] = Formulation No. 001, RNA No. 019 (hEPO)
[7] = Formulation No. 001, RNA No. 331
[8] = liver, 6 h post injection, read-out: Liver (ng/g), ionizable lipid concentration

| Compound | Size (nm) [2] | PDI [2, 6] | Size [2, 6] | PDI [2, 7] | EE (%) [4, 7] | In vitro cell viability (%) (Mean) (Hep G2 cells [1]) | Kidney (p/s) (C57BL/6J mice) | Large intestine (p/s) (C57BL/6J mice) | Liver (p/s) (C57BL/6J mice) | Small intestine (p/s) (C57BL/6J mice) | Spleen (p/s) (C57BL/6J mice) | Whole body (p/s) (C57BL/6J mice) | IL-6 at 2 h (IL-6) | IL-6 at 24 h (IL-6) | Liver (p/s) (Mean) (Balb/c mice) | Spleen (p/s) (Mean) (Balb/c mice) | Whole body (p/s) (Mean) (Balb/c mice) | In vitro Expression (Mean) (Hep G2 cells [5]) | MCP-1 at 2 h (MCP-1) | MCP-1 at 24 h (MCP-1) | also measured |
| --- | --- | --- | --- | --- | --- | --- | --- | --- | --- | --- | --- | --- | --- | --- | --- | --- | --- | --- | --- | --- | --- |
| CCCCC/C=C\C/C=C\CCCCCCCCOC(=O)NC(COC(=O)NCCN1CCCCCC1)C(=O)OCCCCCC(=O)OCC(CCCCCCCC)CCCCCCCCCC (centres unmarked) [Lipid 911] | 64.33 nm | 0.05 | 58.16 nm | 0.03 | 98.24% | 81.84% | 3.75E+07 p/s | 8.42E+07 p/s | 7.97E+09 p/s | 6.47E+08 p/s | 8.51E+08 p/s | 7.27E+09 p/s | 28.5 pg/mL | 4.43 pg/mL | 5.42E+08 p/s | 1.27E+08 p/s | 1.17E+09 p/s | 5.01E+05 | 2000 pg/mL | 254 pg/mL | Plasma (ng/mL), ionizable lipid concentration ([3]; 1 h post injection): 7622 ng/mL and 5572 ng/mL and 3130 ng/mL; Liver (ng/g), ionizable lipid concentration ([3]; 6 h post injection): 29536 ng/g and 35435 ng/g; Plasma (ng/mL), ionizable lipid concentration ([3]; 6 h post injection): 298 ng/mL and 2.59 ng/mL and 3.41 ng/mL; Liver (ng/g), ionizable lipid concentration ([3]; 168 h post injection): 890 ng/g and 1331 ng/g and 618 ng/g; concentration at 6 h [3, 8]: 29400 ng/g; EE (%) [4, 6]: 94.15% |
| CCCCCCCCCCCOC(=O)CCCCCOC(=O)C(COC(=O)NCCN1CCCCCC1)NC(=O)OCCCCCCCCOC(=O)C(CCCCCC)CCCCCCCC (centres unmarked) [Lipid 924] | 78.20 nm | 0.16 | 87.04 nm | 0.05 | 90.24% | 89.34% | 3.17E+07 p/s | 3.25E+08 p/s | 5.23E+09 p/s | 7.18E+08 p/s | 1.13E+09 p/s | 4.40E+09 p/s | 47.1 pg/mL | 5.9 pg/mL | 9.02E+08 p/s | 2.37E+08 p/s | 3.08E+09 p/s | 6.15E+05 | 1390 pg/mL | 207 pg/mL | Plasma (ng/mL), ionizable lipid concentration ([3]; 1 h post injection): 5572 ng/mL and 3130 ng/mL and 7622 ng/mL; Liver (ng/g), ionizable lipid concentration ([3]; 6 h post injection): 1864 ng/g and 1834 ng/g; Plasma (ng/mL), ionizable lipid concentration ([3]; 6 h post injection): 2.59 ng/mL and 3.41 ng/mL and 298 ng/mL; concentration at 6 h [3, 8]: 1410 ng/g; EE (%) [4, 6]: 90.41% |
| CCCCCCCCCC(=O)OCCCCCCCOC(=O)C(COC(=O)NCCN1CCCCCC1)NC(=O)OCCCCCCCCOC(=O)C(CCCCCC)CCCCCCCC (centres unmarked) [Lipid 934] | 70.72 nm | 0.08 | 70.30 nm | 0.03 | 95.74% | 94.29% | 4.10E+07 p/s | 1.17E+08 p/s | 1.82E+09 p/s | 6.60E+08 p/s | 1.17E+09 p/s | 2.46E+09 p/s | 40.7 pg/mL | 7.83 pg/mL | 6.73E+08 p/s | 2.04E+08 p/s | 1.87E+09 p/s | 5.28E+05 | 1360 pg/mL | 229 pg/mL | Plasma (ng/mL), ionizable lipid concentration ([3]; 1 h post injection): 3316 ng/mL and 5944 ng/mL and 9980 ng/mL; Plasma (ng/mL), ionizable lipid concentration ([3]; 6 h post injection): 691 ng/mL and 8.59 ng/mL; concentration at 6 h [3, 8]: 14 ng/g; EE (%) [4, 6]: 93.44% |

Further lines, with some results ahead:

| Size (nm) [2] | PDI [2, 6] | Size [2, 6] | PDI [2, 7] | EE (%) [4, 7] | Compound | In vitro cell viability (%) (Mean) (Hep G2 cells [1]) | Kidney (p/s) (C57BL/6J mice) | Large intestine (p/s) (C57BL/6J mice) | Liver (p/s) (C57BL/6J mice) | Small intestine (p/s) (C57BL/6J mice) | Spleen (p/s) (C57BL/6J mice) | Whole body (p/s) (C57BL/6J mice) | IL-6 at 2 h (IL-6) | IL-6 at 24 h (IL-6) | Liver (p/s) (Mean) (Balb/c mice) | Spleen (p/s) (Mean) (Balb/c mice) | Whole body (p/s) (Mean) (Balb/c mice) | In vitro Expression (Mean) (Hep G2 cells [5]) | MCP-1 at 2 h (MCP-1) | MCP-1 at 24 h (MCP-1) | also measured |
| --- | --- | --- | --- | --- | --- | --- | --- | --- | --- | --- | --- | --- | --- | --- | --- | --- | --- | --- | --- | --- | --- |
| 81.86 nm | 0.14 | 90.32 nm | 0.03 | 91.27% | CCCCC/C=C\CCOC(=O)CCCCCOC(=O)C(COC(=O)NCCN1CCCCCC1)NC(=O)OCCCCCCCCOC(=O)C(CCCCCC)CCCCCCCC (centres unmarked) [Lipid 955] | 95.28% | 4.80E+07 p/s | 3.44E+08 p/s | 1.98E+09 p/s | 6.59E+08 p/s | 2.12E+09 p/s | 4.06E+09 p/s | 1140 pg/mL | 7.13 pg/mL | 7.00E+08 p/s | 9.11E+07 p/s | 2.15E+09 p/s | 2.53E+05 | 3350 pg/mL | 580 pg/mL | Plasma (ng/mL), ionizable lipid concentration ([3]; 1 h post injection): 6059 ng/mL and 23590 ng/mL and 15983 ng/mL; Liver (ng/g), ionizable lipid concentration ([3]; 6 h post injection): 703 ng/g and 396 ng/g; Plasma (ng/mL), ionizable lipid concentration ([3]; 6 h post injection): 11.9 ng/mL and 22 ng/mL; concentration at 6 h [3, 8]: 668 ng/g; concentration at 6 h ([3]; plasma, 6 h post injection, read-out: Plasma (ng/mL), ionizable lipid concentration): 17 ng/mL; EE (%) [4, 6]: 93.99% |
| 91.09 nm |  |  | 0.13 | 95.49% | CCCCC/C=C\C/C=C\CCCCCCCCOC(=O)NC(COC(=O)NCCN1CCCCCC1)C(=O)OCCCCCCCCCC(=O)OCCCCCCC (centres unmarked) [Lipid 959] | 96.03% | 1.10E+07 p/s | 3.10E+07 p/s | 1.10E+09 p/s | 1.43E+08 p/s | 4.52E+08 p/s | 7.04E+08 p/s | 78.7 pg/mL | 1.8 pg/mL | 1.07E+09 p/s | 2.04E+08 p/s | 3.16E+09 p/s | 2.95E+05 | 1760 pg/mL | 176 pg/mL |  |
